# Assay results published in a melting point compilation (Tetko et al.; mined from patent text by program, amines drawn as free bases though some values may be those of a salt).
row,SMILES,melting point [°C]
1,CCOC(=O)C(Cc1cccc2cccnc12)(NC(=O)CC)C(=O)OCC,80 to 100
2,CCCCOc1ccc(Oc2cc(=O)c3c(OCCCC)c(OC)c(OCCCC)cc3o2)cc1,62 to 63
3,CCCCc1nc(CCC)n[nH]1,48.5 to 50
4,O=C1N(c2ccccc2Br)Cc2cnc(Nc3ccccc3)nc2N1c1ccc(CO)cc1,129 to 132
5,Cc1nc(N2CCOCC2)ccc1N1CCCn2c1nc1c(Cl)ccc(C(OC(F)F)C(F)(F)F)c12 (configuration not stated),191 to 193
6,CCC(O)c1c(C(C)C)nc(C(C)C)c(CO)c1-c1ccc(F)cc1 (configuration not stated),173 to 175
7,CCCC(=O)SCC(Cc1ccccc1)C(=O)Nc1cccc(C(=O)O)c1C (configuration not stated),136 to 141
8,CCCCN=C1c2ccccc2CCc2c1nc1c(cnn1CC)c2NCCCC,124 to 125
9,CCc1ccc(NC(=O)NCC2(c3ccccc3)CCCCC2)cc1,138 to 139
10,CCOC(=O)C1=Cc2cc(-c3ccc(OC(F)(F)F)cc3)ccc2OCC1,59 to 63
11,C[Si](C)(C)C#Cc1ccc([N+](=O)[O-])cc1,95 to 100
12,COc1ccc(CC(=O)NCc2ccccc2-c2ccccc2C(=O)NCCc2cccnc2)cc1,116
13,CCCOc1ccc(C(O)CN2CCOCC2)cc1-c1nc2c(CCC)nn(C)c2c(=O)[nH]1 (configuration not stated),104 to 105
14,Cc1c(Br)c(=O)c(-c2ccc(Cl)cc2)c(C)n1C,264 to 266
15,Cc1cccc(Nc2nc(-c3cn[nH]c3)c(F)s2)n1,204
16,COCCNC(=O)c1ccc(C(=O)NS(=O)(=O)c2ccc(CCNC(=O)CCc3ccc(OC)c(OC)c3)cc2)cn1,87 to 89
17,CCCCCCCC[C@H](N[C@@H](C)C(=O)O)C(=O)OCC,127 to 128
18,CC1Cc2c(c3ccccc3n2C(=O)c2ccccc2)C(C)C1C(=O)O (configuration not stated),142 to 145
19,COc1cc(-c2ccc(C3C(CCC(O)c4ccc(F)cc4)C(=O)N3c3ccc(F)cc3)cc2)cc(OC)c1OC (configuration not stated),103
20,CCCCCCCCCC#Cc1ccnc(C(=O)O)c1,93 to 94
21,COc1ccc2c3c1OC1C(O)C(C)(C)CC4C(C2)N(C)CCC341 (configuration not stated),> 265
22,CCOC(=O)c1c(Cn2cncn2)nc2cc(OC)c(OC)cc2c1-c1ccc(OC)c(OC)c1,176 to 177
23,Cc1cc(-c2ccc(C(F)(F)F)cc2)cc(-c2ccnc(-c3cccc(N)c3)n2)n1,167
24,CCC1CC(=O)c2cc(C(C)C(N)=O)ccc2O1 (configuration not stated),148 to 150
25,COC(=O)C(=CNc1ccsc1C(=O)O)SC,179 to 180

row,SMILES,melting point [°C]
1,OC(c1ccc(F)cc1)(c1ccc(F)cc1)c1nccn1Cc1ccccc1,176 to 177
2,Nc1c2c(=O)c3ccccc3c(=O)c2c(N)c2c(=O)n(CCCCCCO)c(=O)c12,210 to 211
3,CC(C)(C)Cn1c(=O)c(=O)[nH]c2cc([N+](=O)[O-])c(N)cc21,> 300
4,CCOC(=O)C(=O)Nc1ccc(Oc2ccc(NC(=O)C(=O)OCC)cc2)cc1,150 to 158
5,CCCC(CCC)C(=O)N[C@H](C(=O)N[C@H]1CCO[C@@H]1OC)C(C)C,150 to 156
6,Cc1cc(C)cc(C(=O)c2c(C(C)C)c(=O)[nH]c(=O)n2C/C=C/CCl)c1,178 to 179
7,CCOC(=O)Cn1c(=O)c2ccccc2n(Cc2ccc(Cl)cc2)c1=O,138 to 139
8,CCn1c(=O)c2c(nc(/C=C/c3ccc(OCC(=O)c4ccccc4)c(OC)c3)n2C)n(CC)c1=O,180 to 182
9,Cc1ccc(S(=O)(=O)OCC2CN(C)c3ccc(Cl)cc3O2)cc1 (configuration not stated),65 to 67
10,CCCCCOc1ccc2c(c1)C=C(CN)CO2,126
11,CC(c1ncccn1)C(O)(Cn1cncn1)c1ccc(F)cc1F (configuration not stated),193 to 195
12,Nc1ccc(O)c2c1C(=O)c1c(N)ccc(O)c1C2=O,290
13,Nc1nc2ccccc2c2c1ncn2CCCCNC(=O)c1ccccc1Oc1ccccc1,93 to 94
14,CC(C)(c1ccccc1)c1ccc(OCC(=O)O)c(C(C)(C)c2ccccc2)c1,114
15,O=C(CCl)NC(c1ccc(F)cc1)c1ccc(F)cc1,128
16,CCCc1c(C(=O)C(C)C)c2ccc(C(N)=O)cc2n1Cc1ccc(Br)cc1F,197 to 198
17,O=Cc1ccn(C2=CC3=C(CC2)CCc2[nH]c(=O)c(=O)n(CC(=O)O)c23)c1,> 250
18,COc1nc(NNc2nc(OC)nc(OC)n2)nc(OC)n1,222 to 224
19,CCC(CC)Nc1c([N+](=O)[O-])cc(C)c(COC(C)=O)c1[N+](=O)[O-],47 to 49
20,CN(C(=O)OC(C)(C)C)c1cc(Oc2ccc(C34CC5CC(CC(C5)C3)C4)cc2)ccc1N,85 to 90
21,Cc1nc(-c2cc(C)c(OCCCc3cccnc3)c(C)c2)no1,46 to 49
22,OC1c2cc(Cl)ccc2OCC1n1ccnc1 (configuration not stated),153 to 160
23,CC1CCN(C2=Nc3cc(Br)ccc3N3CCc4cccc2c43)CC1,177 to 179
24,CCOC(=O)C(=O)Nc1cc(C)ccc1[N+](=O)[O-],114
25,C/C(=C\c1ccc(OC(C)C)cc1Oc1ncc(C(F)(F)F)cc1Cl)C(=O)NS(=O)(=O)NCc1cnc(C)cn1,126 to 128

row,SMILES,melting point [°C]
1,Cn1c2ccccc2c2cc(C(=O)C(C)(C)N3CCOCC3)ccc21,164 to 166
2,CN1C(=O)CC[C@]2(C)c3ccc(Oc4ccc5ccccc5n4)cc3CC[C@@H]12,172 to 174
3,Cc1ccc(C2(CC(=O)O)CNC(=O)C2)cc1 (configuration not stated),184 to 186
4,C#CCN=c1sc2cc(OC(F)(F)F)ccc2n1CC(=O)c1ccc(C)cc1,98 to 100
5,CCOC(=O)c1ccc2c(c1)C(=O)c1nc3ccccc3c(=O)n1-2,270 to 273
6,CC1(C)CCC2=C1CCC1C3CC(C#N)C(=O)C=C3CCC21 (configuration not stated),163 to 165
7,CC(=O)c1ccc2c(c1)C(C(Cl)(Cl)Cl)OC(C(Cl)(Cl)Cl)O2 (configuration not stated),104 to 105
8,CN(c1cccc2cc(C(=O)NCC3(SCc4ccccc4)CCC4(CC3)OCCO4)[nH]c12)S(=O)(=O)c1cccs1,211 to 212
9,CC(=O)c1ccc(-c2cccc(C(F)(F)F)c2)o1,105 to 109
10,Cc1ccc(C(=O)NC(N2CCN(c3cccc(F)c3)C2=S)C(Cl)(Cl)Cl)cc1 (configuration not stated),184 to 186
11,CNc1nc(C)c(-c2cn3ccc(C)cc3n2)s1,220 to 221
12,CC=CCn1c(C)c(C)c2cnnc(NCc3ccc(F)cc3)c21,135 to 138
13,O=c1[nH]c2cc(Cl)ccc2c(O)c1-c1ccc(F)cc1,335 to 337
14,O=C(C(=O)c1ccc(C#Cc2ccccc2)cc1)c1ccc(C#Cc2ccccc2)cc1,168 to 170
15,CCc1nc2c(C)c(S(=O)(=O)N(C)C)c(C)nc2n1Cc1ccc(-c2ccccc2-c2c(OC(C)C)c(=O)c2=O)cc1,80
16,CCOC(=O)c1cn(N2CCOCC2)c2ccc(CN3CCOCC3)cc2c1=O,209 to 211
17,O=c1oc2ccccc2c(OCCN2CCOCC2)c1-c1ccccc1,97
18,CC(Cn1ncnn1)n1nnc2cc3c(=O)n(C(C)Cn4ncnn4)nnc3cc2c1=O (configuration not stated),64 to 66
19,O=S(=O)(Nc1ccccc1O)c1ccccc1,140
20,COc1ccc2c(c1)CN(C(=O)CN1CCCC1)N=C2Cc1c(Cl)cncc1Cl,148 to 150
21,CS(=O)(=O)c1ccc(-c2cnn(CC(F)(F)F)c(=O)c2-c2ccc(Cl)c(F)c2)cc1,174 to 175
22,CCN(CC)C(=O)c1ccc2ccccc2c1-c1ccc(F)cc1,103 to 104
23,CC(C)CC(N)S(=O)(=O)O (configuration not stated),142 to 144
24,OC1CSC(Oc2ccc(-c3cc4ccccc4o3)nc2)C(O)C1O (configuration not stated),195
25,CCNC(=O)Nc1ccc(C(O)(C(F)(F)F)C(F)(F)F)cc1,178 to 179

row,SMILES,melting point [°C]
1,Clc1ccc(C2COCCS2)cc1Cl (configuration not stated),65 to 68
2,O=C1CCCCCCC1F (configuration not stated),48.1 to 49.8
3,Cc1nnc(NC(=O)C(c2ccccc2)c2ccccc2)o1,160 to 161
4,CC/C=C\C/C=C\C/C=C\CCCCCCCC(=O)Nc1c(OC)cc(OC)cc1OC,86 to 88
5,CC(=O)c1ccc2c(c1)C(=C1CCN(C)CC1)c1ccccc1S2,125 to 127
6,COc1ccc(C(C)=O)cc1C12CC3CC(CC(C3)C1)C2,138 to 140
7,CC(C)(C)Nc1c(Nc2ccc3ncccc3c2)c(=O)c1=O,234 to 236
8,CC1C(CCc2ccccc2)SC2=CC=NC3=CC=CC(c4ccccc4)C321 (configuration not stated),210
9,CCn1c(COCc2ccccc2)nc(C(C)C)c1Sc1cccc(Cl)c1,99 to 100
10,COc1ccc(C(=O)Nc2nc3ccc(N(C)C)cc3c(N=Cc3ccccc3)c2C#N)cc1,185
11,COc1nccc2c1C(c1ccccc1C(F)(F)F)c1c(ccnc1OC(C)C)N2 (configuration not stated),183 to 185
12,Cc1n[nH]c(-c2ccc(Br)cc2)c1NC(=O)c1cccnc1,262 to 264
13,Nc1cccc(CN2CCC(NC(=O)NC(=O)c3ccccc3)CC2)c1,194 to 195
14,CCOC(=O)c1ccnc(-c2nc(=O)c3ccccc3s2)c1,236 to 237
15,CC(C)(C)C(=C=CCl)c1ccccc1-c1ccccc1,85 to 86
16,CC(C)(C)OC(=O)Cn1c(C(=O)OCc2ccccc2)cc2cnccc21,94
17,COc1ccc(C2=NN(Cc3ccc(C(=O)O)cc3)C(=O)[C@H]3CCCC[C@@H]23)cc1OC (relative stereo),135 to 139
18,COC(=O)c1ccc(NC(=O)OCc2ccccc2)c(Cl)c1,108
19,CC(C)(C)[C@H]1CC[C@H](N(Cc2ccc(C(=O)NC[C@H](O)C(=O)O)cc2)C(=O)Nc2cc(C(F)(F)F)cc(C(F)(F)F)c2)CC1,185 to 187
20,CCc1nn(C2CCCC2)c2cc(C(=O)NCCC(=O)O)ccc12,151 to 153
21,Cc1cc(C)cc(S(=O)(=O)n2c(CCC(=O)O)cc3nc(C(F)(F)F)ccc32)c1,185 to 189
22,CCNC(=O)NS(=O)(=O)c1cc2c(cc1OC)OCCC2CNC(=O)c1cc(Cl)ccc1OC (configuration not stated),211 to 213
